Assay results from ChEMBL document CHEMBL3217441, “Aromatic chloride to nitrile transformation: medicinal and synthetic chemistry” (Medchemcomm, 2010).

Columns and labels:
[1] = Inhibition of HIV-1 RDDP after 30 mins by scintillation counting analysis in presence of [3H]-TTP; set-up: species or system Human immunodeficiency virus 1
[2] = Lipophilicity, log D of the compound at pH 7.4; assay type: physicochemical; settings: buffer
[3] = Half life in human liver microsomes; assay type: ADME

SMILES	IC50 [1] [nM]	logD [2]	half-life [3] [min]
CCc1nc(C)n(CC)c1Oc1cc(C#N)cc(C#N)c1	131	1.9	101
CCc1nc(C)n(CC)c1Oc1cc(Cl)cc(C#N)c1	18	3.2	16
